Reference: BindingDB's records for PubMed 28189086 (Texas Southern University, 2017)

Target: Maltase-glucoamylase (Homo sapiens, UniProt O43451)
Test: Inhibition of Alpha-glucosidase (unknown origin)

Sequence of Maltase-glucoamylase (O43451 whole entry): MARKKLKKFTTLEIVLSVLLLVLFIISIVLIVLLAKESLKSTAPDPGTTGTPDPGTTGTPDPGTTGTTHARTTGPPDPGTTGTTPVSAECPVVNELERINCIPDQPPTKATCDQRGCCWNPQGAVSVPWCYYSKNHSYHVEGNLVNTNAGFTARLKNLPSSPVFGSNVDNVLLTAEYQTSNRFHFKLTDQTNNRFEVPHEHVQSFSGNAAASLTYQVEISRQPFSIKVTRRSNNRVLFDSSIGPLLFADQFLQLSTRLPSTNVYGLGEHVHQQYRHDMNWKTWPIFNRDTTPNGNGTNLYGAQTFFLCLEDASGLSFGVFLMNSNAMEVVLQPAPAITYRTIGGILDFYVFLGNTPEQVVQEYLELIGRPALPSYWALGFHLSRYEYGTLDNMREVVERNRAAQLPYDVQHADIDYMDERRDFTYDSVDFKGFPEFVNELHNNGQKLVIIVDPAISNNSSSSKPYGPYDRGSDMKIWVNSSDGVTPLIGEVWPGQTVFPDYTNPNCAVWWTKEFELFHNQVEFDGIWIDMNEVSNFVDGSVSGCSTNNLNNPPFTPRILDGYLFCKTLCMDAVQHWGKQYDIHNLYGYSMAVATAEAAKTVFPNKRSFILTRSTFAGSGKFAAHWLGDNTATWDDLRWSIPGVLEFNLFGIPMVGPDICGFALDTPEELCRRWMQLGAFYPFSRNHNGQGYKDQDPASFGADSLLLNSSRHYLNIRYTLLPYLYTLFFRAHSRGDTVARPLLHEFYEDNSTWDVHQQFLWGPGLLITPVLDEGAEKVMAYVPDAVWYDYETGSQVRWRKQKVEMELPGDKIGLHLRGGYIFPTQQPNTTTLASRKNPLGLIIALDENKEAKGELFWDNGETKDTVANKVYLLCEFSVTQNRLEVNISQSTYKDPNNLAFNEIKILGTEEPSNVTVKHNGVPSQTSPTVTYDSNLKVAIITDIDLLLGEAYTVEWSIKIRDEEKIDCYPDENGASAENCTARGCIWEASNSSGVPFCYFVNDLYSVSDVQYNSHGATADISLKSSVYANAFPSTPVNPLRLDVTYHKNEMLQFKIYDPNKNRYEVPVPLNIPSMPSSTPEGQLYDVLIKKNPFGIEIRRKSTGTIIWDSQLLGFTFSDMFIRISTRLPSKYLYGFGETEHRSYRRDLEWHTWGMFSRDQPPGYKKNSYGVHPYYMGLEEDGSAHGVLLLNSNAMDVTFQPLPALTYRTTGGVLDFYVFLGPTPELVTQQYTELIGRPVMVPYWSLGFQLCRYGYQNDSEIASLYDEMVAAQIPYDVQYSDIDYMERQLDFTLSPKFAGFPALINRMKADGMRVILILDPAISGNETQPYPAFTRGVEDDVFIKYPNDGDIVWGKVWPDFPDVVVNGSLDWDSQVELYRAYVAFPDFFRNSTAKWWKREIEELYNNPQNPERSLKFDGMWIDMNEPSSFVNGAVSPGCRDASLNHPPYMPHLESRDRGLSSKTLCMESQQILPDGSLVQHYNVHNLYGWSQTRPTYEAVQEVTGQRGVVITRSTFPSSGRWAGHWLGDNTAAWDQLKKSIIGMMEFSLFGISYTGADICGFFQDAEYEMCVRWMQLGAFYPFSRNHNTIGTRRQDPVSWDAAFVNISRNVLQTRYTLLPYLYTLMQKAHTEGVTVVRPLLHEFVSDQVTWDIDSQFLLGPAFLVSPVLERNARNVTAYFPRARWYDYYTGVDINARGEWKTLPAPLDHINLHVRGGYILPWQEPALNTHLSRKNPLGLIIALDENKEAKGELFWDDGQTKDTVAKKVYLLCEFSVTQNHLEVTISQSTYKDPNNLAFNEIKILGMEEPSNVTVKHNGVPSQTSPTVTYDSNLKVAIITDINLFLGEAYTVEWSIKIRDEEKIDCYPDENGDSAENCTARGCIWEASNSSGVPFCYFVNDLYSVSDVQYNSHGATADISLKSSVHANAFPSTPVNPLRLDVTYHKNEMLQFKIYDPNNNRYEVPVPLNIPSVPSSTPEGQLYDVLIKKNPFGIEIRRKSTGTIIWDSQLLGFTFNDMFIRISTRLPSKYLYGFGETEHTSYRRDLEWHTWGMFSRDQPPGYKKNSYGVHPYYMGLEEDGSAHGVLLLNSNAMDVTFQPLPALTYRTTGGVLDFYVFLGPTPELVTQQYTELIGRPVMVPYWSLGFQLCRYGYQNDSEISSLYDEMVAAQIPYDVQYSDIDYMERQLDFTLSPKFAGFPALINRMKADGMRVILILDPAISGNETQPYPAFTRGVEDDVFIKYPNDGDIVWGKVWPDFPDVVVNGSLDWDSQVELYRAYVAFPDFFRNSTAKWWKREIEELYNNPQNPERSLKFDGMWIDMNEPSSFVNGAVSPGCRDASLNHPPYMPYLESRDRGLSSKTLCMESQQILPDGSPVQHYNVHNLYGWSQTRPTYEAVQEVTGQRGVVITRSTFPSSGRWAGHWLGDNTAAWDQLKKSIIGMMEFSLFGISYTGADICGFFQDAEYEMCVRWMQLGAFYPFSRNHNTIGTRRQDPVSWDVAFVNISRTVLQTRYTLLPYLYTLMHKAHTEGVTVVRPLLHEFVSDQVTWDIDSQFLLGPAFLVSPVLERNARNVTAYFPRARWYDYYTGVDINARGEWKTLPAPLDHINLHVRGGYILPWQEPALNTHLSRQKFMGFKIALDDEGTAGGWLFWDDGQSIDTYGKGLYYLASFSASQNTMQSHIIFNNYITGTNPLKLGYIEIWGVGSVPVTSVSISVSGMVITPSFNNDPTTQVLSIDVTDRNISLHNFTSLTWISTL

SMILES	IC50 [µM]
COc1ccc2c(c1)OC[C@H]1c3ccc(OC)c(O)c3O[C@@H]21	128
COc1ccc2c(c1OC)O[C@H]1c3ccc(O)cc3OC[C@@H]21	174
O=c1oc2cc(O)ccc2c2oc3cc(O)ccc3c12 [5,14-dihydroxy-8,17-dioxatetracyclo[8.7.0.0^{2,7}.0^{11,16}]heptadeca-1(10),2,4,6,11(16),12,14-heptaen-9-one]	6
